Drawing on BindingDB's records for patent US12440484 (Chong Kun Dang Pharmaceutical, 2025), this text covers IC50 for four compounds.

For one assay, the target named is Histone deacetylase 1 (Homo sapiens, UniProt Q13547). The assay is described as follows: Identification of HDAC Enzyme Activity Inhibition (In Vitro). The procedure: (§1) For a HDAC1 assay, samples were treated at a concentration of 100, 1000 and 10000 nM. For a HDAC6 assay, samples were treated at a concentration of 0.1, 1, 10, 100 and 1000 nM.
A further assay concerns the target T1, Histone deacetylase 6 (Homo sapiens, UniProt Q9UBN7).
T1 sequence (Q9UBN7 whole entry): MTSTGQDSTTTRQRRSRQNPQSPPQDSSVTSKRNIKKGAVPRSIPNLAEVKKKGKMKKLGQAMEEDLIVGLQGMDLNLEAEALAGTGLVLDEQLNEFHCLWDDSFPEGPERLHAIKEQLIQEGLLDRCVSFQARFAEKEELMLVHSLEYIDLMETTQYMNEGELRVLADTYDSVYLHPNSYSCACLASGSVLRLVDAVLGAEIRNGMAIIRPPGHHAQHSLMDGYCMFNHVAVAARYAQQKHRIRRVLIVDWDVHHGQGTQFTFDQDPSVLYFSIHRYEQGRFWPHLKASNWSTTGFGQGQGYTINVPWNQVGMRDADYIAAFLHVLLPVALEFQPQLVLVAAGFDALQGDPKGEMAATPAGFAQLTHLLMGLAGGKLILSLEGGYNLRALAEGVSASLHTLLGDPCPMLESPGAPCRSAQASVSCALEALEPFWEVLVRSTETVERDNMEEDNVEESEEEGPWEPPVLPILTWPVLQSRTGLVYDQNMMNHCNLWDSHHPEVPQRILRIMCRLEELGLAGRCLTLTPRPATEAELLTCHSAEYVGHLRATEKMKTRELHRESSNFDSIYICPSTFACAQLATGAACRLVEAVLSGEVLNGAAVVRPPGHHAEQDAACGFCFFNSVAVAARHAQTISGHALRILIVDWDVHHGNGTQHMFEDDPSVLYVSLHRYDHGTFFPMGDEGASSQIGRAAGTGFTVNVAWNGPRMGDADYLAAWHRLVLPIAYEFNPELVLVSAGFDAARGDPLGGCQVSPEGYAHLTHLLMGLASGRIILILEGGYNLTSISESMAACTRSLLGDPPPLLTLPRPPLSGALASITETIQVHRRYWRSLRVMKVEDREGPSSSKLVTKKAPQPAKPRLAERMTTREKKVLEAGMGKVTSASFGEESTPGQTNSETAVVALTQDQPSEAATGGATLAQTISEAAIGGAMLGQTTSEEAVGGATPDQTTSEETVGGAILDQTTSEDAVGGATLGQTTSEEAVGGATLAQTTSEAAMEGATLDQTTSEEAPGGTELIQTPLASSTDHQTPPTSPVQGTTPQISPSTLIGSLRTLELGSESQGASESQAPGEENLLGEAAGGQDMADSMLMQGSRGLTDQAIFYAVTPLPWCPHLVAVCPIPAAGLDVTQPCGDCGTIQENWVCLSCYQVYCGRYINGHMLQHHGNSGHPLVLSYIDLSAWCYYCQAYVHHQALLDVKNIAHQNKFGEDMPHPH
The description is as above. The procedure: as §1

Sequence of Histone deacetylase 1 (Q13547 whole entry): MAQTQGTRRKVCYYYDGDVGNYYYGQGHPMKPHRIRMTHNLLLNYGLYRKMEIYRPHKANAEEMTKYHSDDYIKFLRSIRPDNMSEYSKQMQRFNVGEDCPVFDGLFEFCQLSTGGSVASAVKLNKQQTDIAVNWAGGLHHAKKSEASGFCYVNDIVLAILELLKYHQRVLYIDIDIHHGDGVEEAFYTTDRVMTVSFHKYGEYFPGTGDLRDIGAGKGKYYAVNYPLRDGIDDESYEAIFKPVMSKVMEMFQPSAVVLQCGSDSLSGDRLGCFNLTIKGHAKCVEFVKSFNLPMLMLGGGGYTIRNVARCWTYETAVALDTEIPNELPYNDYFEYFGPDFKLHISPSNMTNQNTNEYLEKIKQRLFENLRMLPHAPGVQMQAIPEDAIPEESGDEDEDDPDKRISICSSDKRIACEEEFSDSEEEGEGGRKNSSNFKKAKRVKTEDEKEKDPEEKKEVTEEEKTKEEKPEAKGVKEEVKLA

By IC50 is commonly meant the concentration that gives 50% inhibition. The low end stands for greater potency, the high end for weaker potency. Regarding `CC1(C)C(=O)N(Cc2ccc(-c3nnc(C(F)F)o3)cn2)C(=O)c2ccc(N3CCCCC3)cc21` [US12440484, Compound 27], the IC50 on Histone deacetylase 1 was greater than 10000 nM; at Histone deacetylase 6, 43 nM.

Take `CC1(C)C(=O)N(Cc2ccc(-c3nnc(C(F)F)o3)cn2)C(=O)c2ccc(N3CCN(CC(F)(F)F)CC3)cc21` [US12440484, Compound 141]: the results for the IC50 on Histone deacetylase 1 and against Histone deacetylase 6 were greater than 10000 nM and 52 nM, respectively.

On to `COCCN1CCC(c2ccc3c(c2)C(=O)N(Cc2ccc(-c4nnc(C(F)F)o4)cn2)C(=O)C3(C)C)CC1` [US12440484, Compound 151], for which the IC50 against Histone deacetylase 1 is greater than 10000 nM; at Histone deacetylase 6, 33 nM.

`O=c1c2ccccc2n(CCN2CCCCC2)c(=O)n1Cc1ccc(-c2nnc(C(F)F)o2)cc1F` [US12440484, Compound 10]: the IC50 against Histone deacetylase 1 was greater than 10000 nM; against Histone deacetylase 6, 455 nM.
